For data set [1], the system named is I.C.R. Swiss albino mice. The experiment in a line: Chemical analgesia, acetic acid writhing technique. It is filed as in vivo. As to conditions: for No. of writhes: 30 min before acetic acid, noted 20 min after, x ± S.E.M.; for analgesic activity compared with dextropropoxyphene (in words): acetic acid writhing, i.p. The procedure: 2. Chemical analgesia The analgesic effect has been studied in I.C.R. Swiss albino mice, employing the acetic acid writhing technique. Batches of 10 mice were made.
The products studied were administered intraperitoneally, and after 30 minutes the mice were injected intraperitoneally with 0.25 ml of 1% acetic acid. A batch of control animals received only the acetic acid. Note was made of the number of writhes in each mouse 20 minutes following injection of the acetic acid.

Data set [2] concerns I.C.R. Swiss albino mice. The experiment in a line: Thermal analgesia, 55° C. "hot plate" technique. The data set is classed as in vivo. As to conditions: for Jumping time: 30 min before 55° C. hot plate, x ± S.E.M.; for thermal analgesic activity (in words): hot plate, i.p. The protocol:
The thermal analgesic effect has been studied in I.C.R. Swiss albino mice. The 55° C. "hot plate" technique was used. Batches of 10 mice were made. The products in study were administered intraperitoneally and after 30 minutes the mice were placed on the hot plate and note was made, in seconds, of the time it took them to jump. Batches were made of control animals injected only with distilled water.

Data set [3] is described as follows: Acute toxicity (LD50, Litchfield-Wilcoxon test, intraperitoneal). As to conditions: mouse, in vivo, ip, mice, deaths noted 48 hours after treatment. On the set-up: species or system I.C.R. Swiss albino mice. The protocol:
A--ACUTE TOXICITY Acute toxicity studies have been made in I.C.R. Swiss albino mice of both sexes of a weight of 30±2 g, kept without food for 24 hours prior to the experiment. Ambient temperature and relative humidity were held constant. The products were administered intraperitoneally, with the number of deaths noted 48 hours from the moment of treatment. Calculation of the lethal dose 50 (LD50) was made by the Litchfield-Wilcoxon test.

Where [4] appears, read: 25 mg/kg i.p., control 109.9 ± 6.362.
Where [5] appears, read: 50 mg/kg i.p., control 48.8 ± 5.033.
[6] abbreviates: 30 mg/kg i.p., control 122.1 ± 9.15.
The mark [7] stands for this setting: 25 mg/kg i.p., control 30.9 ± 5.016.

As usually defined, the LD50 is the dose expected to kill half of the subjects tested. A lower LD50 goes with a more toxic substance.

`CC1=CCN(C)C(Cc2cc3ccccc3s2)C1` (centres unmarked) [Product II, 2-(2-benzo[b]thienylmethyl)-1,4-dimethyl-1,2,3,6-tetrahydropyridine] came in with a No. of writhes in the data set with I.C.R. Swiss albino mice [1] (setting [4]) of 41.2 ± 6.024. For the same molecule, the “analgesic activity compared with dextropropoxyphene (in words)” value in the data set with I.C.R. Swiss albino mice [1] is listed as “not significantly different from that of dextropropoxyphene”. In the data set on I.C.R. Swiss albino mice [2] (setting [5]), the Jumping time amounted to 63 ± 8.368 s. Moreover, the “thermal analgesic activity (in words)” value in the data set on I.C.R. Swiss albino mice [2] is “lacks any thermal analgesic activity”. Besides, the LD50 at 48 h in data set [3] came out at 916 mg/kg.
In turn, `CN1CCC2(C)CC1Cc1sc3ccccc3c12` (racemic) [Product I, 2,5-dimethyl-benzo[b]thiene[3,2-f]morphan] showed a No. of writhes with I.C.R. Swiss albino mice [1] (setting [6]) of 44.3 ± 6.14. Further, the “analgesic activity compared with dextropropoxyphene (in words)” value in the data set with I.C.R. Swiss albino mice [1] is “has analgesic activity, but of lesser intensity than that of dextropropoxyphene”. The Jumping time with I.C.R. Swiss albino mice [2] (setting [7]) came to 48.9 ± 8.956 s. Further, the “thermal analgesic activity (in words)” value in the data set with I.C.R. Swiss albino mice [2] was “lacks any thermal analgesic activity”. This molecule came in with an LD50 at 48 h in data set [3] of 90.8 mg/kg.
As for `CCC(=O)O[C@](Cc1ccccc1)(c1ccccc1)[C@H](C)CN(C)C` [Dextropropoxyphene, dextropropoxyphene, reference compound], the results for the No. of writhes with I.C.R. Swiss albino mice [1] (setting [4]) and in the data set with I.C.R. Swiss albino mice [1] (setting [6]) were 27.8 ± 8.365 and 24 ± 6.03, respectively. Also, the Jumping time in the data set with I.C.R. Swiss albino mice [2] (setting [7]) was 70.8 ± 13.592 s; in the data set with I.C.R. Swiss albino mice [2] (setting [5]) it was 91.3 ± 7.894 s.
